Converted amounts (≈) assume the structure as drawn.

Data on 5 compounds can be found in patent publication US20240293359A1, “PROPHYLACTIC OR THERAPEUTIC DRUG FOR PARKINSON'S DISEASE” (Kyowa Pharma Chemical Co., Ltd., priority 2021, published 2024).

Series [1] deals with dopamine oxidation accelerated in the presence of Fe^3+. Kind of series: Suppression test of dopamine oxidation accelerated in presence of iron ions. It is filed as biochemical. Particulars: dopamine 2 mmol/L, Fe^3+ 2 mmol/L, hydrogen peroxide 1 moL/L, 0.2 M phosphate buffer pH 6.5, 25° C., 6 to 9 hours. The procedure: For a test, dopamine hydrochloride (DA·HCl), iron(III) nitrate 9-hydrate (Fe(NO3)3·9H2O) as Fe^3+ source, hydrogen peroxide solution as oxidant, glutathione trisulfide 2-hydrate, lipoic acid trisulfide, pantethine trisulfide, or N,N′-diacetyl-L-cysteine trisulfide as trisulfide compound were used.
A method of preparing each substance is as follows. • 10 mM DA-HCl aqueous solution: prepared by dissolving DA·HCl in purified water. • 20 mM Fe^3+ solution: prepared by dissolving Fe(NO3)3·9H2O in 5 mmol/L H2SO4. • 40 mM glutathione trisulfide solution: prepared by dissolving glutathione trisulfide 2-hydrate in 0.2 mol/L phosphate buffer solution (pH=6.5). • 40 mM lipoic acid trisulfide solution: prepared by dissolving lipoic acid trisulfide in 0.2 mol/L phosphate buffer solution (pH=6.5). • 400 mM pantethine trisulfide solution: prepared by dissolving pantethine trisulfide in 0.2 mol/L phosphate buffer solution (pH==6.5). • 40 mM N,N′-diacetyl-L-cysteine trisulfide: prepared by dissolving N,N′-diacetyl-L-cysteine trisulfide in 0.2 mol/L phosphate buffer solution (pH=6.5).
The pre-prepared preparation solution of each substance (mentioned above) and 0.2 M phosphate buffer solution (pH=6.5) were mixed in a 50 mL or 5 mL test tube to prepare 20 mL or 2 mL reaction solution so that each substance has the following concentration in the reaction solution. • Dopamine: 2 mmol/L • Fe^3+: 2 mmol/L • Hydrogen peroxide: 1 moL/L • Glutathione trisulfide: 3 concentrations (5, 10 or 20 mmol/L) • Lipoic acid trisulfide: 2 concentrations (10 or 20 mmol/L) • Pantethine trisulfide: 3 concentrations (100, 150 or 200 mmol/L) • N,N′-diacetyl-L-cysteine trisulfide: 3 concentrations (5, 10 or 20 mmol/L)
The reaction solution was stirred at 25° C., 500 rpm for 6 to 9 hours. The dopamine concentration in the reaction solution was quantified with high performance liquid chromatography (HPLC).
The conditions for HPLC is as follows. • Detector: Ultraviolet absorptiometer (measuring wavelength: 280 nm) • Column: Inertsil ODS-2 (4.6 mm I.D.×150 mm, 5 μm) • Column temperature: constant temperature around 35° C. • Mobile phase: prepared by adding 0.2 mol/L citric acid aqueous solution to 0.2 mol/L disodium hydrogenphosphate aqueous solution to adjust to pH 3.0. • Flow rate: 0.7 mL/min • Amount infused: 20 μL • Area measurement range: for 30 minutes after infusion of sample solution Preparation of sample solution: prepared by diluting 100 μL reaction solution 10-fold with water to form sample solution • Retention time: Dopamine (DA) approximately 7 minutes

Series [2] can be described thus: Solubility in water at 20° C. It counts as physicochemical. Particulars: free lipoic acid trisulfide.

Regarding `O=C(O)CCCCC1CCSSS1` (racemic) [lipoic acid trisulfide], in series [1] (lipoic acid trisulfide 10 or 20 mmol/L), the “suppression of dopamine oxidation in the presence of Fe^3+ (dopamine concentration by HPLC, FIG. 2)” value is “suppressed the dopamine oxidation”.

As to `N[C@@H](CCC(=O)N[C@@H](CSSSC[C@H](NC(=O)CC[C@H](N)C(=O)O)C(=O)NCC(=O)O)C(=O)NCC(=O)O)C(=O)O` [Glutathione trisulfide, glutathione trisulfide], the “suppression of dopamine oxidation in the presence of Fe^3+ (dopamine concentration by HPLC, FIG. 1)” value in series [1] (glutathione trisulfide 5, 10 or 20 mmol/L) is recorded as “suppressed the dopamine oxidation”.

For `O=C(O)CCCC[C@@H]1CCSSS1` [Lipoic acid trisulfide R body, (R)-lipoic acid trisulfide], the solubility – broadly, how much of the substance goes into solution per volume – in series [2] was 300 µg/mL (≈ 1260 µM).

Consider `CC(=O)N[C@@H](CSSSC[C@H](NC(C)=O)C(=O)O)C(=O)O` [N,N′-diacetyl-L-cysteine trisulfide], for which the “suppression of dopamine oxidation in the presence of Fe^3+ (dopamine concentration by HPLC, FIG. 4)” value in series [1] (N,N′-diacetyl-L-cysteine trisulfide 5, 10 or 20 mmol/L) was “suppressed the dopamine oxidation”.

As for `CC(C)(CO)[C@@H](O)C(=O)NCCC(=O)NCCSSSCCNC(=O)CCNC(=O)[C@H](O)C(C)(C)CO` [pantethine trisulfide], the “suppression of dopamine oxidation in the presence of Fe^3+ (dopamine concentration by HPLC, FIG. 3)” value in series [1] (pantethine trisulfide 100, 150 or 200 mmol/L) is reported as “suppressed the dopamine oxidation”.
